Results on ten substances are retold here after patent US9796777B2, “Methods of treating malignant tumors” (Canimguide Therapeutics AB, priority 2007, dated 2017).

Assay [1] concerns cell surface receptors of immune cells (ACS). Briefly: Adsorption of enzyme fragmented dHSA on affinity column with biotinylated cell surface proteins (ACS), MALDI-TOF ms. Format: binding, human. The conditions noted are these: Table 5 A; peptides generated by trypsin degradation of dHSA. The protocol: Based on the observation that immunoregulatory peptide sequences are present in serum albumin, there is the possibility that other sequences than the epitope of mAb A have immunoregulatory function. Therefore an artificial cell surface (ACS) was prepared as described in materials and methods. […]
To remove unfragmented albumin and enzyme, the sample was ultra filtered through an Amicon Ultra 4 (mw cut-off of 5000) or a Centriplus (mw cut-off 10000) centrifugal filter (Millipore AB, Solna, Sweden). The filtrate, containing fragmented dHSA without enzymes, was collected and diluted with PBS with Ca and Mg (GIBCO).
Buffy coats generated from 450 ml blood each was collected from 4 healthy donors. Erythrocytes were removed by sedimentation on 2% dextran T500 solution (Amersham Pharmacia Biotech AB, Uppsala Sweden) in 0.9% NaCl. Mononuclear cells (PBMC) were then isolated by Ficoll-Paque Plus (GE Healthcare Bioscience AB Sweden) density gradient centrifugation. The PBMC were then suspended in phosphate buffered saline (PBS) containing Ca and Mg (GIBCO) at a concentration of 10×10^6/ml. EZ Link Sulfo-NHS-biotin (Pierce USA) was added at a final concentration of 0.2 mg/ml and the mixture incubated on a shaker at room temperature for 10 min. Excess biotin was then removed by washing the PBMC in PBS. Biotinylated PBMC were then lysed by adding 1.0 ml ice-cold lysing buffer (50 mM Tris-HCL, pH 7.5, with 0.15 M NaCl, 5 mM MgCl2 containing 100 mM Octyl glucoside and 1 mM Phenylmethylsulfonyl fluoride) per 2×10^7 pelleted cells with gentle shaking, then incubated for 30 min. on ice. Debris was removed by centrifugation at 5000×g at 4° C. for 10 min and the supernatants was collected and pooled from all four donors. The lysate was then stored at −70° C. in polypropylene plastic tubes.
This amount of lysate corresponds to 36×10^7 mononuclear cells. It was added to a 1 ml Hitrap Streptavidin HP affinity column (Amersham Biosciences). To block possible remaining free biotin, 5 ml of 0.1 M glycine (Sigma) was added to the column. Unsaturated streptavidin on the column was then reacted with 150 ug biotin (Sigma) in binding buffer. The column was carefully washed with PBS and stored in PBS with 0.1% NaN3 at 4° C. until use.
27 ml biotinylated cell lysate in binding buffer (corresponding to 54×10^7 mononuclear cells) was added to 1.5 ml washed Streptavidin Sepharose HP (Amersham Biosciences). To block possible remaining free biotin, 25 ml of 0.1 M glycine (Sigma) was added to the Streptavidin Sepharose. Unsaturated streptavidin was then reacted with 225 μg biotin (Sigma) in binding buffer. The Streptavidin Sepharose was carefully washed in PBS. One ml of the biotinylated cell lysate coupled Streptavidin Sepharose was then packed in an empty column (Tricorn Empty High Performance Column, Amersham Bioscience) and washed with phosphate buffered saline (PBS) containing Ca and Mg (GIBCO).
The flow-through was collected with consideration taken to void volume and dilution of adsorbed sample by collecting in small portions of 0.2 ml. Thirty ul of each sample, including a control sample that has not been adsorbed, were dried in a Speed-Vac centrifuge.
Dried samples were reconstituted in 10 ul of 0.1% TFA. Zip Tip pipette tips (Millipore, USA) containing C18 reversed-phase media were used for desalting reconstituted samples. […] For the analysis of samples in the mass range 1500-9000 Da, one μl of each Zip Tip eluted sample was mixed with 1 μl of sinapinic acid ([…]). […] Mass identity search of resulting spectra was performed in the SwissProt or NCBI databases using MS-Fit.

The subject of the next assay is mAb A. The conditions noted are these: second trypsination of <30 kD fragments eluted from mAb A at pH 2.7. The protocol:
MALDI epitope mapping of mAb A based on antibody protection of proteolysis was repeated. This time a slightly different approach was used. Denatured HSA was incubated with mAb A. Albumin not bound by the antibody, was removed from the sample by size exclusion on an ultra filter. The remaining free mabs and the complexes of mab-albumin was then digested with trypsin (sequences of the albumin molecule to which mab is bound should resist the trypsin digestion). Small cleaved fragments of mab and unprotected albumin was then removed from the sample by ultrafiltration (30 kD). The complexes of mAb and bound albumin fragments were dissociated by lowering the pH to 2.7. Again ultrafiltration at 30 kD was performed to separate whole mAb from albumin fragments smaller than 30 kD.
Denatured HSA (80 μg) was incubated with mAb A (10 μg) in PBS for 18 h at room temperature. […] The retentate was diluted in 25 mM NH4HCO3 and again centrifuged as described above. The retentate was transferred to a sterile eppendorf microcentrifuge tube in 0.4 ml 25 mM NH4HCO3 and 0.4 μg sequencing grade modified trypsin (Promega) was added. Digestion was carried out at 37° C. over night with gentle agitation. Trypsin and free (not antibody-bound) albumin fragments were removed by ultrafiltration on a Amicon Ultra-4 filter (mw cut-off 30 000 Da, Millipore Co.) for 5 min at 3000 rpm. This was repeated three times. The retentate was then transferred to a new ultra filter where the mAb A was disassociated from bound albumin by the addition of 600 μl 0.1 M glycine-HCl, pH 2.7, for 30 min at room temperature after which the ultra filter was centrifuged for 10 min at 3000 rpm. The filtrate was transferred to a sterile Eppendorf microcentrifuge tube and neutralized with Tris-HCl, pH 9. The sample was then immediately dried over night in a SpeedVac vacuum concentrator. The samples were then dissolved in 16 μl of sequencing grade modified trypsin (at 5 μg/ml) (Promega) and incubated at 37° C. for 18 hours. Zip Tip pipette tips (Millipore) containing C18 chromatorgraphy media were used for desalting before the sample was analysed by MALDI TOF ms (see below).
1 μl of each sample of the tryptic digestion was mixed with 1 μl of a saturated solution of α-cyano-4-hydroxycinamic acid ([…]) in 70% acetonitrile/0.3% trifluoro acetic acid. 1 μl of that mixture was spotted on a stainless steel target plate and analysed using MALDI-TOF ms (Voyager-DE PRO, Applied Biosystems, CA, US) equipped with a 337 nm N2 laser. Database searches for masses corresponding to human serum albumin in the resulting spectra were performed in NCBI or SwissProt with MS-Fit as search engine.

For another assay, the system named is PBMC. Kind of assay: LPS-induced IL-6 production by PBMC, effect of peptides. It is filed as cell-based, human. The settings on record: PBMCs from one healthy control; lowest peptide concentration. How it is done:
100 μl of culture medium consisting of RPMI1640 supplemented with 200 IU/ml penicillin, 200 μg/ml streptomycin, 4 mM L-glutamine (Sigma Chemical, Mo., US) and 20% fresh heat-inactivated autologous serum were added to un-coated or -pre-coated microtiter plates followed by 100 μl of PBMC suspension (5×10^4 lymphocytes) in RPMI/2% HSA with peptides at the indicated concentrations. Lipoplysaccharide (LPS, Sigma Chemical Co, MO, US) was added at a final concentration of 0.05 ng/ml. […] All assay conditions were set up in triplicate wells. Supernatants (SNs) were harvested after 24 hrs and residual cells were removed by centrifugation in a refrigerated centrifuge (Beckman) at 2600×g for 5 minutes. SNs were frozen and stored at −70° C. IL-6 in cell culture SNs was measured by ELISA using the DuoSet® ELISA development kit for human IL-6 (R&D Systems Europe, Ltd., Abingdon, UK) following the manufacturer's recommended procedures. The lower limit of detection was 3.1 pg/ml. Samples were analysed as mean of triplicate wells.

Assay [2] addresses T1, β2-integrin LFA-1 (CD11a) (Homo sapiens, UniProt P20701).
T1 construct: endogenous in cells; host or cells: human PBMC (healthy controls, cancer patients) and THP-1 monocytic cell line (ATCC)
Kind of assay: Immunocytochemical staining of PBMC and THP-1 with anti-integrin (CD11a) antibody with or without albumin peptides. Format: binding. The conditions noted are these: monocytic cell line THP-1; peptide 40 μg/ml preincubation. How it is done:
Cytospin preparations of mononuclear blood cells from healthy controls, cancer patients and a monocytic cell line, THP-1, were prepared (as described under materials and methods), dried and stored at −70° C. In the immunocytological staining, unspecific staining was blocked by incubation with 10% human AB serum. Some of the slides were preincubated for 60 minutes with albumin peptides at a concentration of 40 μg/ml, added to this 10% AB serum, as indicated in the FIG. 8 A-F. The staining procedure was then continued as described in material and methods. The staining intensity of slides stained with and without preincubation with the peptides was recorded semi quantitatively using a standard light microscope.
PBMC were separated as described above. Cultured THP-1 cells (obtained from the American Type Culture Collection through LGL Nordic AB, Sweden) were carefully washed and suspended in RPMI1640. PBMC and THP-1 were immediately spun down on pre-cleaned microscope slides in a Shandon Cytospin (Shandon Scientific Ltd, UK) at 1000 RPM for 7 min at 2.5 or 5×10^4 cells per slide. The slides were left to dry at room temperature over night, after which they were wrapped in parafilm and stored at −70° C. Immediately before use, the cytospins were thawed and fixed with acetone for 5 min at room temperature. The cytospins were first blocked with 10% normal human AB-serum with and without albumin peptides (40 ␣g/ml) for 1 h before staining. Primary antibody, consisting of a monoclonal mouse anti-human CD11a (clone HI111, BD Biosciences) diluted in Tris buffered saline (TBS, pH 7.6) at 5 μg/ml (THP-1) or 1 µg/ml (PBMC), was added. The slides were incubated for 30 min and then washed in TBS followed by Envision-Alkaline Phosphatase (Dako Norden A/S, Denmark) for 30 min. After additional washing in TBS, the slides were incubated in alkaline phoshatase substrate consisting of Fast Red TR salt (Sigma), naphtol AS-MX (Sigma) and 5 mM levamisol (Sigma) to block endogenous alkaline phosphatase activity, for 20 min followed by washing in TBS. They were then counterstained in Mayer's haematoxylin for 1 minute and mounted in Glycergel (Dako Norden NS). Monoclonal mouse IgG1 against an irrelevant antigen (Aspergillus niger glukosoxidase, Dako Norden NS) was used as a negative control. All incubations were performed at room temperature in a moist chamber.
FIG. 24. Inhibition of the binding of anti-LFA-1, mab HI111, to mononuclear blood cells by 3028 peptide and fragments 3325 and 3218. A standard immunohistochemical staining procedure using acetone fixation, 10% human AB-serum for blocking, incubation with HI 111 and a secondary antibody (Ultravision, an alkaline phosphate conjugated polymer attached to Fab-fragments of goat anti-mouse Ig), followed by development with Fast Red. The slides were then mounted in Glycergel. Preincubation with peptides added to the AB serum was as follows: A. No peptide added, B. peptide 3028, C. The C-terminal part (3218), and D. The N-terminal part (3325).

The subject of the next assay is PBMCs. Kind of assay: PHA-induced proliferation of PBMC in the presence of albumin peptides and/or dHSA. It is filed as cell-based, human. The source says: Venous blood was drawn from healthy volunteers or from cancer patients in glass vacuum tubes with acid dextrose citrate solution A as anti-coagulant (Vacutainer, Becton Dickinson, Franklin Lakes, N.J.). Erythrocytes were removed by sedimentation on 2% dextran T500 solution (Amersham Pharmacia Biotech AB, Uppsala, Sweden) in 0.9% NaCl (this step was omitted for cultures with PHA-stimulation-see below). […] For cell cultures with PHA-stimulation, PBMC were washed in Hank's Balanced Salt Solution (HBSS) with 10% autologous plasma instead of RPMI/2% HSA. […] The cell suspension was stained with Turk's solution and the number of lymphocytes and monocytes in the PBMC preparation were counted in a hemocytometer. PBMCs were suspended in RPMI/2% HSA and the cell concentration adjusted to 5×10^5 lymphocytes/ml.
100 μl of the cell suspension were seeded into round-bottomed microtiter plates (Corning, N.Y., USA) followed by 100 μl of culture medium consisting of RPMI 1640 (Flow Laboratories, Irvine, Scotland) supplemented with 200 IU/ml Penicillin, 200 μg/ml Streptomycin (Flow laboratories) and 20% heat inactivated autologous serum. Phytohemagglutinin (PHA-P, Sigma Chemical Co, St. Louis, Mo.) at a final concentration of 5 or 10 μg/ml was then added.
All culture conditions were set up in triplicate wells. […] Mean values of disintegrations per minute (dpm) of triplicates were used for the calculations.

T1 sequence (P20701 26-1170): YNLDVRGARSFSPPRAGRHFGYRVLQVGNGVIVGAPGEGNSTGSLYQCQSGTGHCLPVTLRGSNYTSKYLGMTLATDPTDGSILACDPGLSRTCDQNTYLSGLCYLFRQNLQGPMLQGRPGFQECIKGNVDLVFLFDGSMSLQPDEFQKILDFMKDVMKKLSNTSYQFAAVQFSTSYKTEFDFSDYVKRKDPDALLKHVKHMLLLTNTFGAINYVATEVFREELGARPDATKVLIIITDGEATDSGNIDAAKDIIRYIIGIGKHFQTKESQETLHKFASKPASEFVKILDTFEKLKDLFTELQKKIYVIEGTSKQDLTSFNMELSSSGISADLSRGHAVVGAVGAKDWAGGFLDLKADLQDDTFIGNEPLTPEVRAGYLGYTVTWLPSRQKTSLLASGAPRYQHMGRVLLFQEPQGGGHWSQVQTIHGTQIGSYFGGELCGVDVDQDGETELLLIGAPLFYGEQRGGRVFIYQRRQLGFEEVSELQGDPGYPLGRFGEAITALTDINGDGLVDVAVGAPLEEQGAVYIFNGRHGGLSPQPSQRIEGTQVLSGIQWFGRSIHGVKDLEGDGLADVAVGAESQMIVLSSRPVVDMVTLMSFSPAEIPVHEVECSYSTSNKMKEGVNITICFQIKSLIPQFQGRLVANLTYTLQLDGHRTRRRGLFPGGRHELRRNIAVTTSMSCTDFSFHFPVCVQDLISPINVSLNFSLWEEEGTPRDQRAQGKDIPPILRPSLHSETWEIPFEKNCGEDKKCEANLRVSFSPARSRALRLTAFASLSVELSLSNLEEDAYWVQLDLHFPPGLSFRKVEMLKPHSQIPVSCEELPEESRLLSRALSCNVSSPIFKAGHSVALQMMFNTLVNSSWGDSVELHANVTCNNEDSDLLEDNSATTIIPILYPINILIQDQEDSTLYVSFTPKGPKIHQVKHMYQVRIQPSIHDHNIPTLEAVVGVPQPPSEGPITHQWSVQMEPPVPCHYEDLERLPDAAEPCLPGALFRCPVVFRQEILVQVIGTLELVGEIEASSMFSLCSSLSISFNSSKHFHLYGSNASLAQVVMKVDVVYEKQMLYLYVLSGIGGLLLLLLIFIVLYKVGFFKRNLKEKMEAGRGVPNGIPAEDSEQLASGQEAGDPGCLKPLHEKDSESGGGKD
T1 sequence (P05107 23-769 partner): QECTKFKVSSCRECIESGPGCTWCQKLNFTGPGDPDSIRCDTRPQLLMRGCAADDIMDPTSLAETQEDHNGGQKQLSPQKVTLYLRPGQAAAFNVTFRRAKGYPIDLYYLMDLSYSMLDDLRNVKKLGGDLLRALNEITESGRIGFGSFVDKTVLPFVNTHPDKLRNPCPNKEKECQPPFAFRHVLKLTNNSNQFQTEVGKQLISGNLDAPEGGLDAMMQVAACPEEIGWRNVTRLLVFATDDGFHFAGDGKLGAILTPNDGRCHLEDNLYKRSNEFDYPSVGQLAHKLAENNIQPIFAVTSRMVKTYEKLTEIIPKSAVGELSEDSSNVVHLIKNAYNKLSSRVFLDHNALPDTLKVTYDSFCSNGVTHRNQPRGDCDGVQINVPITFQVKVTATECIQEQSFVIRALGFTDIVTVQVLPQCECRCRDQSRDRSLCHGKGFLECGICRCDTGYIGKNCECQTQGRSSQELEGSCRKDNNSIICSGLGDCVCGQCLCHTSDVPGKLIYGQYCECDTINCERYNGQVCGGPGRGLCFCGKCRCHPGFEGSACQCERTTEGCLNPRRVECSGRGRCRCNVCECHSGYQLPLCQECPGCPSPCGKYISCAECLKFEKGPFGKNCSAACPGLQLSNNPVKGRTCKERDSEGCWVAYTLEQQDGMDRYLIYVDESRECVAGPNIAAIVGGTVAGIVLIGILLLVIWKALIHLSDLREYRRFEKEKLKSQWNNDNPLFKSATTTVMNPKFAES

In assay [1], LDELRDEGK [206-214] showed a Per cent adsorbed of 0.02 Per cent. This substance came in with a Peak area with mAb A of 644.
In the case of CCTESLVNR [500-508], the Per cent adsorbed in assay [1] came to 0.26 Per cent. Besides, the Peak area in the assay on mAb A stood at 119.
Turning to KLDELRDEGKAS [peptide 2606], in the assay on PBMC, the “effect on LPS induced IL-6 production” value was “inhibitory”. In addition, in assay [2], the “effect on binding of the mAb to LFA-1” value is “clearly enhanced”.
As for ELFEQLGEYKF [peptide 2608], the “effect on PHA induced proliferation of PBMCs” value with PBMCs (PHA 5 μg/ml, peptides 10 μg/ml, 5 healthy controls and 4 patients) was “stimulatory effect in ¼ controls whereas ¾ patients were stimulated”; in the assay with PBMCs (patient P46, lowest peptide concentration), “clear stimulatory activity”. Further, the “effect on dHSA enhanced PHA induced proliferation” value in the assay on PBMCs (peptides 10 μg/ml, lower dHSA concentrations) was “stimulated the proliferative rate”; in the assay with PBMCs (peptides 10 μg/ml, two highest dHSA concentrations) it was “significantly inhibited the stimulatory activity”. In addition, in the assay on PBMC, the “effect on LPS induced IL-6 production” value is reported as “inhibitory”.
In the case of FQNALLVR [427-434], the Per cent adsorbed in assay [1] was found to be 0.41 Per cent. Moreover, the Peak area in the assay on mAb A stood at 1345.
As for DDNPNLPR, the Per cent adsorbed in assay [1] was determined as 0.01 Per cent. The substance also showed a Peak area in the assay on mAb A of 534.
LCTVATLR [098-105]: the Per cent adsorbed in assay [1] amounted to 0.35 Per cent. Moreover, in the assay with mAb A, the Peak area is on record as 744.
LSQRFPK: in the assay with mAb A, the Peak area worked out at 481.
On to YLYEIAR [162-168], for which, in assay [1], the Per cent adsorbed turned out to be 0.34 Per cent. In addition, in the assay on mAb A, the Peak area was 1035.
Taken in the same sequence, the figures for LVNEVTEFAK [066-075] were -0.02 Per cent and 1918.
